From patent publication US20070049564A1 (Wyeth, priority 2005, published 2007)
In brackets after ≈: the same amount, converted by molar mass. Read-outs that look alike come from different tables or passages of the source.

Experiments:
[1] = tested on: S. pneumoniae+ GC 4465; test: MIC, broth microdilution; settings: Streptococcus pneumoniae
[2] = tested on: S. pyogenes GC 4563; test: MIC, broth microdilution; settings: Streptococcus pyogenes
[3] = tested on: S. epidermidis GC 4935; test: MIC, broth microdilution; settings: Staphylococcus epidermidis
Description: (§1) Antimicrobial susceptibility testing. The in vitro activities of the antibiotics are determined by the broth microdilution method as recommended by the National Committee for Clinical Laboratory Standards (NCCLS) (1). Mueller-Hinton II broth (MHBII)(BBL Cockeysville, Md.) is the medium employed in the testing procedures. Microtiter plates containing serial dilutions of each antimicrobial agent are inoculated with each organism to yield the appropriate density (10^5 CFU/ml) in a 100 μl final volume. The plates are incubated for 18-22 hours at 35° C. in ambient air.
(§2) Representative compounds were first incubated in mouse serum for an hour prior to the in vitro testing against a panel of selected gram-positive and gram-negative bacteria strains. All compounds were also pre-incubated in water for an hour prior to testing as control. Representative compounds of Formula I were incubated in human serum prior to MIC determination.

[4] = tested on: S. aureus GC 1131; test: MIC, broth microdilution; settings: Staphylococcus aureus
[5] = tested on: E. coli; test: Range of MIC for E. coli strains; settings: Escherichia coli
Description: as §1, §2

[6] = tested on: S. aureus GC 6466; test: MIC, broth microdilution; settings: Staphylococcus aureus
Description: Antimicrobial susceptibility testing. The in vitro activities of the antibiotics are determined by the broth microdilution method as recommended by the National Committee for Clinical Laboratory Standards (NCCLS) (1). Mueller-Hinton II broth (MHBII)(BBL Cockeysville, Md.) is the medium employed in the testing procedures. Microtiter plates containing serial dilutions of each antimicrobial agent are inoculated with each organism to yield the appropriate density (10^5 CFU/ml) in a 100 μl final volume. The plates are incubated for 18-22 hours at 35° C. in ambient air. […] Standard Pharmacological Test Procedures
Presented in Tables I-XIII are representative compounds of Formula I which were evaluated against a panel of 40 selected gram-positive and gram-negative bacteria strains by pre-incubation in water, mouse serum or human serum. Representative compounds were first incubated in mouse serum for an hour prior to the in vitro testing against a panel of selected gram-positive and gram-negative bacteria strains. All compounds were also pre-incubated in water for an hour prior to testing as control. Representative compounds of Formula I were incubated in human serum prior to MIC determination.

[7] = tested on: S. aureus GC 1079; test: MIC, broth microdilution; settings: Staphylococcus aureus
[8] = tested on: E. coli GC 2234; test: MIC, broth microdilution; settings: Escherichia coli
[9] = tested on: S. aureus GC 6469; test: MIC, broth microdilution; settings: Staphylococcus aureus
[10] = tested on: E. coli GC 2236; test: MIC, broth microdilution; settings: Escherichia coli
[11] = tested on: Staph.; test: Range of MIC for Staph. strains, including MRSA; settings: Staphylococcus aureus, MRSA, read-out: Range of MIC, Staph (Mouse Serum)
[12] = tested on: E. faecium GC 2243; test: MIC, broth microdilution; settings: Enterococcus faecium
[13] = tested on: E. coli GC 1073; test: MIC, broth microdilution; settings: Escherichia coli
[14] = tested on: S. aureus GC 4536; test: MIC, broth microdilution; settings: Staphylococcus aureus
[15] = tested on: E. faecalis GC 4555; test: MIC, broth microdilution; settings: Enterococcus faecalis
[16] = tested on: E. coli GC 2272; test: MIC, broth microdilution; settings: Escherichia coli
[17] = tested on: c. albicans GC 3066; test: MIC, broth microdilution
[18] = tested on: E. coli GC 2233; test: MIC, broth microdilution; settings: Escherichia coli
Description: as §1
Representative compounds were first incubated in mouse serum for an hour prior to the in vitro testing against a panel of selected gram-positive and gram-negative bacteria strains. All compounds were also pre-incubated in water for an hour prior to testing as control.

[19] = tested on: E. faecalis GC 2265; test: MIC, broth microdilution; settings: Enterococcus faecalis
[20] = tested on: E. coli GC 6465; test: MIC, broth microdilution; settings: Escherichia coli

## CCCN(CC(=O)Nc1cc(N(C)C)c2c(c1O)C(=O)C1=C(O)[C@]3(O)C(=O)C(C(N)=O)=C(O)C(N(C)C)C3CC1C2)C(=O)OCc1oc(=O)oc1-c1ccccc1 (stereo in doubt) [Example 110, (2-oxo-5-phenyl-1,3-dioxol-4-yl)methyl 2-{[(7R,10aS)-9-(aminocarbonyl)-4,7-bis(dimethylamino)-1,8,10a,11-tetrahydroxy-10,12-dioxo-5,5a,6,6a,7,10,10a,12-octahydrotetracen-2-yl]amino}-2-oxoethyl(propyl)carbamate]
[1]; pre-incubation in mouse serum
  MIC: 4 µg/mL (≈ 5.06 µM)
[1]; pre-incubation in water
  MIC: 2 µg/mL (≈ 2.53 µM)
[2]; GC4563, pre-incubation in mouse serum
  MIC: 0.12 µg/mL (≈ 0.152 µM)
[2]; GC4563, pre-incubation in water
  MIC: < 0.06 µg/mL
[3]; GC4935, pre-incubation in mouse serum
  MIC: 4 µg/mL (≈ 5.06 µM)
[3]; GC4935, pre-incubation in water
  MIC: 8 µg/mL (≈ 10.1 µM)
[4]; GC1131, pre-incubation in mouse serum
  MIC: 2 µg/mL (≈ 2.53 µM)
[4]; GC1131, pre-incubation in water
  MIC: 4 µg/mL (≈ 5.06 µM)
[5]; 20 h, read-out: Range of MIC, E. coli (Mouse Serum)
  MIC: 0.5 to 4 µg/mL (≈ 0.633 to 5.06 µM)
[5]; read-out: Range of MIC, E. coli (Water)
  MIC: 1 to 8 µg/mL (≈ 1.27 to 10.1 µM)
[6]; GC6466, pre-incubation in mouse serum
  MIC: 1 µg/mL (≈ 1.27 µM)
[6]; GC6466, pre-incubation in water
  MIC: 2 µg/mL (≈ 2.53 µM)
[7]; GC1079, pre-incubation in mouse serum
  MIC: 16 µg/mL (≈ 20.3 µM)
[7]; GC1079, pre-incubation in water
  MIC: 16 µg/mL (≈ 20.3 µM)
[8]; GC2234, pre-incubation in mouse serum
  MIC: 1 µg/mL (≈ 1.27 µM)
[8]; GC2234, pre-incubation in water
  MIC: 2 µg/mL (≈ 2.53 µM)
[9]; GC6469, pre-incubation in mouse serum
  MIC: 32 µg/mL (≈ 40.5 µM)
[9]; GC6469, pre-incubation in water
  MIC: 32 µg/mL (≈ 40.5 µM)
[10]; GC2236, pre-incubation in mouse serum
  MIC: 1 µg/mL (≈ 1.27 µM)
[10]; GC2236, pre-incubation in water
  MIC: 2 µg/mL (≈ 2.53 µM)
[11]
  MIC: 1 to 32 µg/mL (≈ 1.27 to 40.5 µM)
[12]; GC2243, pre-incubation in mouse serum
  MIC: 0.5 µg/mL (≈ 0.633 µM)
[12]; GC2243, pre-incubation in water
  MIC: 0.5 µg/mL (≈ 0.633 µM)
[13]; GC1073, pre-incubation in mouse serum
  MIC: 2 µg/mL (≈ 2.53 µM)
[13]; GC1073, pre-incubation in water
  MIC: 8 µg/mL (≈ 10.1 µM)
[14]; GC4536, pre-incubation in mouse serum
  MIC: 4 µg/mL (≈ 5.06 µM)
[14]; GC4536, pre-incubation in water
  MIC: 4 µg/mL (≈ 5.06 µM)
[15]; GC4555, pre-incubation in mouse serum
  MIC: 1 µg/mL (≈ 1.27 µM)
[15]; GC4555, pre-incubation in water
  MIC: 2 µg/mL (≈ 2.53 µM)
[16]; GC2272, pre-incubation in mouse serum
  MIC: 1 µg/mL (≈ 1.27 µM)
[16]; GC2272, pre-incubation in water
  MIC: 1 µg/mL (≈ 1.27 µM)
[17]; Candida albicans, GC3066
  MIC: > 64 µg/mL
[17]; pre-incubation in water
  MIC: >64 UG/ML
[18]; GC2233, pre-incubation in mouse serum
  MIC: 0.5 µg/mL (≈ 0.633 µM)
[18]; GC2233, pre-incubation in water
  MIC: 1 µg/mL (≈ 1.27 µM)
[19]; GC2265, pre-incubation in mouse serum
  MIC: 8 µg/mL (≈ 10.1 µM)
[19]; GC2265, pre-incubation in water
  MIC: 4 µg/mL (≈ 5.06 µM)
[20]; GC6465, pre-incubation in mouse serum
  MIC: 64 µg/mL (≈ 81 µM)
[20]; GC6465, pre-incubation in water
  MIC: > 64 µg/mL
